# Experimental data from patent US8637501B2, “Azinone-substituted azepino[b]indole and pyrido-pyrrolo-azepine MCH-1 antagonists, methods of making, and use thereof” (Albany Molecular Research, Inc., priority 2009, dated 2014).
# Structures can show the parent of a compound that is named as a salt.
# Molecular target: human MCH-1 receptor (Homo sapiens (Human), UniProt Q99705)
# Test: Binding Assay for Human Melanin-Concentrating Hormone (MCH-1) Receptor
# Conditions: radioligand displacement, membranes from CHO-K1 cells expressing human MCH-1 receptor; Ki from IC50 by Cheng Prusoff equation; read-out: MCH1 Ki
# Protocol: Binding Assay for Human Melanin-Concentrating Hormone (MCH-1) Receptor
# Evaluation of the affinity of compounds for the human MCH-1 receptor was accomplished using 4-(3,4,5-tritritiumbenzyloxy)-1-(1-(2-(pyrrolidin-1-yl)ethyl)-1H-indazol-5-yl)pyridin-2(1H)-one and membranes prepared from stable CHO-K1 cells expressing the human MCH-1 receptor obtained from Euroscreen (Batch 1138). Cell membrane homogenates (8.92 μg protein) were incubated for 60 min at 25° C. with 1.4 nM of the [^3H]-labeled compound in the absence or presence of the test compound in 50 mM Tris-HCl buffer, pH 7.4. Nonspecific binding was determined in the presence of 50 μM 1-(5-(4-cyanophenyl)bicyclo[3.1.0]hexan-2-yl)-3-(4-fluoro-3-(trifluoromethyl)phenyl)-1-(3-(4-methylpiperazin-1-yl)propyl)urea. Following incubation, the samples were filtered rapidly under vacuum through Skatron 11731 filters, pre-soaked in 0.5% polyethylenimine, and washed with ice-cold 50 mM Tris-HCl buffer, pH 7.4, (wash setting 9,9,0) using a Skatron cell harvester. The filters were counted for radioactivity in a liquid scintillation counter (Tri-Carb 2100TR, Packard) using a scintillation cocktail (Ultima Gold MV, Perkin Elmer).
# The results are expressed as a percent inhibition of the control radioligand specific binding. The IC50 value (concentration causing a half-maximal inhibition of control specific binding) and Hill coefficient (nH) were determined by non-linear regression analysis of the competition curve using Hill equation curve fitting. The inhibition constant (Ki) was calculated from the Cheng Prusoff equation: (Ki=IC50/(1+(L/KD)), where L=concentration of radioligand in the assay, and KD=affinity of the radioligand for the receptor.
# Sequence of human MCH-1 receptor (Q99705 whole entry): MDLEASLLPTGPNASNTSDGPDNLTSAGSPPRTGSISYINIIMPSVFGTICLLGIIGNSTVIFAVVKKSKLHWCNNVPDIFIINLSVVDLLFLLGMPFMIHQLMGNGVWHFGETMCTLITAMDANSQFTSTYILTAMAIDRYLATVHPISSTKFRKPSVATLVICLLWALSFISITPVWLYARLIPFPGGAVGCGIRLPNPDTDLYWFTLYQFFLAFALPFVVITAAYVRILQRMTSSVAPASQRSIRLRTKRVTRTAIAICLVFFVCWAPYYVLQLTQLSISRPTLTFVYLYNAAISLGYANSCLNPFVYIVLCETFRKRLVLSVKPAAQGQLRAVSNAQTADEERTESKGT
row,SMILES,Ki
1,"CC(=O)N1CCc2c(n(C)c3cc(-n4ccc(-c5ccc(C(F)(F)F)nc5)cc4=O)ccc23)CC1 [Example 46, 1-(3-Acetyl-6-methyl-1,2,3,4,5,6-hexahydroazepino[4,5-b]indol-8-yl)-4-(6-(trifluoromethyl)pyridin-3-yl)pyridin-2(1H)-one]",47 nM
2,"Cn1c2c(c3ccc(-n4ccc(-c5ccc(C(F)(F)F)cc5)nc4=O)cc31)CCNCC2 [Example 49, 1-(6-Methyl-1,2,3,4,5,6-hexahydroazepino[4,5-b]indol-8-yl)-4-(4-(trifluoromethyl)phenyl)pyrimidin-2(1H)-one hydrochloride]",17 nM
3,"Cn1c2c(c3ccc(-n4ccc(OCc5ccc(F)cc5F)cc4=O)cc31)CCNCC2 [Example 52, 4-(2,4-Difluorobenzyloxy)-1-(6-methyl-1,2,3,4,5,6-hexahydroazepino[4,5-b]indol-8-yl)pyridin-2(1H)-one hydrochloride]",7.8 nM
4,"Cn1c2c(c3ccc(-n4ccc(OCc5ccc(F)cc5)cc4=O)cc31)CCNCC2 [Example 57, 4-(4-Fluorobenzyloxy)-1-(6-methyl-1,2,3,4,5,6-hexahydroazepino[4,5-b]indol-8-yl)pyridin-2(1H)-one hydrochloride]",7.3 nM
5,"Cn1c2c(c3ccc(N4CCN(CCc5ccccn5)CC4=O)cc31)CNCCC2 [Example 59, 1-(6-Methyl-1,2,3,4,5,6-hexahydroazepino[4,3-b]indol-8-yl)-4-(2-(pyridin-2-yl)ethyl)piperazin-2-one dihydrochloride]",44 nM
6,"Cn1c2c(c3ccc(-n4ncc(OCc5ccc(C(F)(F)F)nc5)cc4=O)cc31)CNCCC2 [Example 60, 2-(6-Methyl-1,2,3,4,5,6-hexahydroazepino[4,3-b]indol-8-yl)-5-((6-(trifluoromethyl)pyridin-3-yl)methoxy)pyridazin-3(2H)-one hydrochloride]",21 nM
7,"Cn1c2c(c3ccc(-n4ccc(OCc5ccc(Cl)cc5Cl)cc4=O)cc31)CNCCC2 [Example 65, 4-(2,4-Dichlorobenzyloxy)-1-(6-methyl-1,2,3,4,5,6-hexahydroazepino[4,3-b]indol-8-yl)pyridin-2(1H)-one hydrochloride]",11 nM
8,"CN1CCCc2c(c3ccc(-n4ccc(-c5ccc(C(F)(F)F)nn5)cc4=O)cc3n2C)C1 [Example 69, 1-(2,6-Dimethyl-1,2,3,4,5,6-hexahydroazepino[4,3-b]indol-8-yl)-4-(6-(trifluoromethyl)pyridazin-3-yl)pyridin-2(1H)-one hydrochloride]",12 nM
9,"CN1CCCc2c(c3ccc(-n4ccc(OCc5ccc(F)cn5)cc4=O)cc3n2C)C1 [Example 70, 1-(2,6-Dimethyl-1,2,3,4,5,6-hexahydroazepino[4,3-b]indol-8-yl)-4-((5-fluoropyridin-2-yl)methoxy)pyridin-2(1H)-one hydrochloride]",8.8 nM
10,"CCN1CCCc2c(c3ccc(-n4ccc(OCc5ccc(F)cn5)cc4=O)cc3n2C)C1 [Example 73, 1-(2-Ethyl-6-methyl-1,2,3,4,5,6-hexahydroazepino[4,3-b]indol-8-yl)-4-((5-fluoropyridin-2-yl)methoxy)pyridin-2(1H)-one hydrochloride]",9.4 nM
11,"Cn1c2c(c3ccc(-n4ccc(OCc5ccc(Cl)cn5)cc4=O)nc31)CCNCC2 [Example 85, 4-((5-Chloropyridin-2-yl)methoxy)-1-(10-methyl-5,6,7,8,9,10-hexahydropyrido[3′,2′:4,5]pyrrolo[2,3-d]azepin-2-yl)pyridin-2(1H)-one hydrochloride]",11 nM
12,"Cn1c2c(c3ccc(-n4ccc(OCc5ccccc5)cc4=O)nc31)CCN(C1CCC1)CC2 [Example 86, 4-(Benzyloxy)-1-(7-cyclobutyl-10-methyl-5,6,7,8,9,10-hexahydropyrido[3′,2′:4,5]pyrrolo[2,3-d]azepin-2-yl)pyridin-2(1H)-one hydrochloride]",16 nM
13,"Cn1c2c(c3ccc(-n4ccc(-c5ccc(C(F)(F)F)cn5)cc4=O)nc31)CNCCC2 [Example 92, 1-(10-methyl-5,6,7,8,9,10-hexahydropyrido[3′,2′:4,5]pyrrolo[3,2-c]azepin-2-yl)-4-(5-(trifluoromethyl)pyridine-2-yl)pyridin-2(1H)-one hydrochloride]",20 nM
14,"Cn1c2c(c3ccc(-n4ccc(OCc5ccc(Cl)cc5Cl)cc4=O)nc31)CNCCC2 [Example 93, 4-(2,4-Dichlorobenzyloxy)-1-(10-methyl-5,6,7,8,9,10-hexahydropyrido[3′,2′:4,5]pyrrolo[3,2-c]azepin-2-yl)pyridin-2(1H)-one hydrochloride]",26 nM
15,"Cn1c2c(c3ccc(-n4ccc(OCc5ccc(F)cc5F)cc4=O)nc31)CNCCC2 [Example 94, 4-(2,4-Difluorobenzyloxy)-1-(10-methyl-5,6,7,8,9,10-hexahydropyrido[3′,2′:4,5]pyrrolo[3,2-c]azepin-2-yl)pyridin-2(1H)-one hydrochloride]",11 nM
16,"Cn1c2c(c3ccc(-n4ccc(OCc5ccc(Cl)cc5F)cc4=O)nc31)CNCCC2 [Example 96, 4-(4-Chloro-2-fluorobenzyloxy)-1-(10-methyl-5,6,7,8,9,10-hexahydropyrido[3′,2′:4,5]pyrrolo[3,2-c]azepin-2-yl)pyridin-2(1H)-one hydrochloride]",9.2 nM

# The remaining lines, values ahead:
row,Ki,SMILES
1,7.4 nM,"Cn1c2c(c3ccc(-n4ccc(OCc5ccc(Cl)cn5)cc4=O)cc31)CCNCC2 [Example 50, 4-((5-Chloropyridin-2-yl)methoxy)-1-(6-methyl-1,2,3,4,5,6-hexahydroazepino[4,5-b]indol-8-yl)pyridin-2(1H)-one hydrochloride]"
2,24 nM,"Cn1c2c(c3ccc(-n4ccc(OCc5ccc(Cl)cc5Cl)cc4=O)cc31)CCNCC2 [Example 51, 4-(2,4-Dichlorobenzyloxy)-1-(6-methyl-1,2,3,4,5,6-hexahydroazepino[4,5-b]indol-8-yl)pyridin-2(1H)-one]"
3,13 nM,"Cn1c2c(c3ccc(N4CCN(CCc5ccc(Cl)cc5)CC4=O)cc31)CCNCC2 [Example 53, 4-(4-Chlorophenethyl)-1-(6-methyl-1,2,3,4,5,6-hexahydroazepino[4,5-b]indol-8-yl)piperazin-2-one dihydrochloride]"
4,12 nM,"Cn1c2c(c3ccc(-n4ccc(OCc5ccc(Cl)cc5F)cc4=O)cc31)CCNCC2 [Example 55, 4-(4-Chloro-2-fluorobenzyloxy)-1-(6-methyl-1,2,3,4,5,6-hexahydroazepino[4,5-b]indol-8-yl)pyridin-2(1H)-one hydrochloride]"
5,163 nM,"Cn1c2c(c3ccc(-n4ccc(-c5ccc(C(F)(F)F)nc5)nc4=O)cc31)CCNCC2 [Example 58, 1-(6-Methyl-1,2,3,4,5,6-hexahydroazepino[4,5-b]indol-8-yl)-4-(6-(trifluoromethyl)pyridin-3-yl)pyrimidin-2(1H)-one hydrochloride]"
6,8.5 nM,"CN1CCCc2c(c3ccc(-n4ccc(OCc5ccc(C(F)(F)F)nc5)cc4=O)cc3n2C)C1 [Example 71, 1-(2,6-Dimethyl-1,2,3,4,5,6-hexahydroazepino[4,3-b]indol-8-yl)-4-((6-(trifluoromethyl)pyridin-3-yl)methoxy)pyridin-2(1H)-one hydrochloride]"
7,13 nM,"Cn1c2c(c3ccc(-n4ccc(OCc5ccc(F)cc5F)cc4=O)nc31)CCNCC2 [Example 83, 4-(2,4-Difluorobenzyloxy)-1-(10-methyl-5,6,7,8,9,10-hexahydropyrido[3′,2′:4,5]pyrrolo[2,3-d]azepin-2-yl)pyridin-2(1H)-one hydrochloride]"
8,11 nM,"Cn1c2c(c3ccc(-n4ccc(OCc5ccc(Cl)cc5F)cc4=O)nc31)CCNCC2 [Example 84, 4-(4-Chloro-2-fluorobenzyloxy)-1-(10-methyl-5,6,7,8,9,10-hexahydropyrido[3′,2′:4,5]pyrrolo[2,3-d]azepin-2-yl)pyridin-2(1H)-one hydrochloride]"
9,6.9 nM,"CCN1CCc2c(n(C)c3nc(-n4ccc(OCc5ccccc5)cc4=O)ccc23)CC1 [Example 87, 4-(Benzyloxy)-1-(7-ethyl-10-methyl-5,6,7,8,9,10-hexahydropyrido[3′,2′:4,5]pyrrolo[2,3-d]azepin-2-yl)pyridin-2(1H)-one hydrochloride]"
10,8.7 nM,"CN1CCc2c(n(C)c3nc(-n4ccc(OCc5ccccc5)cc4=O)ccc23)CC1 [Example 88, 4-(Benzyloxy)-1-(7,10-dimethyl-5,6,7,8,9,10-hexahydropyrido[3′,2′:4,5]pyrrolo[2,3-d]azepin-2-yl)pyridin-2(1H)-one hydrochloride]"
11,15 nM,"Cn1c2c(c3ccc(-n4ccc(OCc5ccc(F)cn5)cc4=O)nc31)CNCCC2 [Example 91, 4-((5-Fluoropyridin-2-yl)methoxy)-1-(10-methyl-5,6,7,8,9,10-hexahydropyrido[3′,2′:4,5]pyrrolo[3,2-c]azepin-2-yl)pyridin-2(1H)-one hydrochloride]"
12,7.8 nM,"Cn1c2c(c3ccc(-n4ccc(-c5ccc(C(F)(F)F)cc5)cc4=O)nc31)CNCCC2 [Example 95, 1-(10-methyl-5,6,7,8,9,10-hexahydropyrido[3′,2′:4,5]pyrrolo[3,2-c]azepin-2-yl)-4-(4-(trifluoromethyl)phenyl)pyridin-2(1H)-one hydrochloride]"
